Data: US12662465B2, “EGFR inhibitors” (Blueprint Medicines Corporation, priority 2021, dated 2026)

How the values were obtained:
[1] = target: intracellular phosphorylation of EGFR (Tyr1068) in PC-9 cells (Ex19Del) (Homo sapiens, UniProt P00533, DEL746-750); assay: PC-9 pEGFR AlphaLISA assay; type: cell-based; settings: 4 hours compound incubation, read-out: Ext pEGFR_PC-9 Ex19Del IC50
[2] = target: T1, EGFR L858R (Homo sapiens, UniProt P00533, L858R); assay: Biochemical EGFR inhibition assay (Caliper mobility shift), EGFR L858R; settings: read-out: Enz EGFR_L858R IC50
T1 construct: purchased SignalChem E10-122BG

[3] = target: T2, EGFR (d746-750) (Homo sapiens, UniProt P00533, DEL746-750); assay: Biochemical EGFR inhibition assay (Caliper mobility shift), EGFR (d746-750); settings: read-out: Enz EGFR_Exon19-del746-750 IC50
T2 construct: purchased SignalChem E10-122JG
T2 sequence (P00533 with tags, fused parts or gaps DEL746-750 limits assumed): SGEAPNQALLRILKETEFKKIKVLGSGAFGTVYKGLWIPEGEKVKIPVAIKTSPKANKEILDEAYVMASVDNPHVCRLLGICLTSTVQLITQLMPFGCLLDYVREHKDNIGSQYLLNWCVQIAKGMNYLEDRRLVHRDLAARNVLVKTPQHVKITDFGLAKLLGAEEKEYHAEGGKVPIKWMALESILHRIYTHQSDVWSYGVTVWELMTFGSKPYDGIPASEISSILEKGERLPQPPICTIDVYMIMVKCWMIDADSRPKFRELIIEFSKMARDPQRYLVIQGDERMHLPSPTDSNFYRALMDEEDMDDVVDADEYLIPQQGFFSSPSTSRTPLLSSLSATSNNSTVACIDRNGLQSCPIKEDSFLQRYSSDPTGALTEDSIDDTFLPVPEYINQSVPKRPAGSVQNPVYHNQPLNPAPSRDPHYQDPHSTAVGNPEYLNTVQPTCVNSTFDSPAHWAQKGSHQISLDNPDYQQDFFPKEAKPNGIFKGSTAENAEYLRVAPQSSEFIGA

intracellular phosphorylation of EGFR (Tyr1068) in PC-9 cells (Ex19Del), sequence (P00533 with tags, fused parts or gaps DEL746-750): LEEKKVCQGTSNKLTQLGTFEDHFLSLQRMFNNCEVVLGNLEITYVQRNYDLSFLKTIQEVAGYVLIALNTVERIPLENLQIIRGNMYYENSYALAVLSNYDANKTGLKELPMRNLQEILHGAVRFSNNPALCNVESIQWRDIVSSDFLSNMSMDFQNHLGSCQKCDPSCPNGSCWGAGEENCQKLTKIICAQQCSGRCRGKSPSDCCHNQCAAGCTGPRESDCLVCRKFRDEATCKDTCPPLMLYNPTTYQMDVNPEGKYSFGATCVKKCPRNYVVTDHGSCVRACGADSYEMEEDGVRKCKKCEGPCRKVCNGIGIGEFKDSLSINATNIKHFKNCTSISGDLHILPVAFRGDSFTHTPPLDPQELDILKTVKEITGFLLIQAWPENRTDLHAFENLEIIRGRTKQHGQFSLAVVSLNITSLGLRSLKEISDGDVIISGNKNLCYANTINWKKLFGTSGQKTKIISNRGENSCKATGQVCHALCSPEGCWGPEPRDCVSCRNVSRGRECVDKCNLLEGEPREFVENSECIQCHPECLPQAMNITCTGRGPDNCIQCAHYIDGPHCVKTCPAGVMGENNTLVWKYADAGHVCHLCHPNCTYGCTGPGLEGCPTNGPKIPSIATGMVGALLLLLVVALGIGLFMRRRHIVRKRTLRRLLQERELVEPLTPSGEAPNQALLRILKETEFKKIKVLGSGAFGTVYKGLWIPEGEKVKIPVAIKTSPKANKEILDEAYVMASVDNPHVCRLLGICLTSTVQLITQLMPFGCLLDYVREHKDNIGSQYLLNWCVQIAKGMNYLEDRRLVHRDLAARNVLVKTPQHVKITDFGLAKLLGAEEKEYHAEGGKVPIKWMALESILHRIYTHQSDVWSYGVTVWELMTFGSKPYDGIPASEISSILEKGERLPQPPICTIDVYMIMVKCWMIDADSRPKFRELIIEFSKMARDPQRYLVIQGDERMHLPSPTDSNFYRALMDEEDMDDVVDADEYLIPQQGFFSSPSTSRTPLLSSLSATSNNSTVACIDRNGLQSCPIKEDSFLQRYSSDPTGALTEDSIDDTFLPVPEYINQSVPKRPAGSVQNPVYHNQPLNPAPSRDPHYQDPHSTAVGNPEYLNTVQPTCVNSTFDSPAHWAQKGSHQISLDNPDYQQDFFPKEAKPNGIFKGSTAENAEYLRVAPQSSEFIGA
T1 sequence (P00533 25-1210 L858R): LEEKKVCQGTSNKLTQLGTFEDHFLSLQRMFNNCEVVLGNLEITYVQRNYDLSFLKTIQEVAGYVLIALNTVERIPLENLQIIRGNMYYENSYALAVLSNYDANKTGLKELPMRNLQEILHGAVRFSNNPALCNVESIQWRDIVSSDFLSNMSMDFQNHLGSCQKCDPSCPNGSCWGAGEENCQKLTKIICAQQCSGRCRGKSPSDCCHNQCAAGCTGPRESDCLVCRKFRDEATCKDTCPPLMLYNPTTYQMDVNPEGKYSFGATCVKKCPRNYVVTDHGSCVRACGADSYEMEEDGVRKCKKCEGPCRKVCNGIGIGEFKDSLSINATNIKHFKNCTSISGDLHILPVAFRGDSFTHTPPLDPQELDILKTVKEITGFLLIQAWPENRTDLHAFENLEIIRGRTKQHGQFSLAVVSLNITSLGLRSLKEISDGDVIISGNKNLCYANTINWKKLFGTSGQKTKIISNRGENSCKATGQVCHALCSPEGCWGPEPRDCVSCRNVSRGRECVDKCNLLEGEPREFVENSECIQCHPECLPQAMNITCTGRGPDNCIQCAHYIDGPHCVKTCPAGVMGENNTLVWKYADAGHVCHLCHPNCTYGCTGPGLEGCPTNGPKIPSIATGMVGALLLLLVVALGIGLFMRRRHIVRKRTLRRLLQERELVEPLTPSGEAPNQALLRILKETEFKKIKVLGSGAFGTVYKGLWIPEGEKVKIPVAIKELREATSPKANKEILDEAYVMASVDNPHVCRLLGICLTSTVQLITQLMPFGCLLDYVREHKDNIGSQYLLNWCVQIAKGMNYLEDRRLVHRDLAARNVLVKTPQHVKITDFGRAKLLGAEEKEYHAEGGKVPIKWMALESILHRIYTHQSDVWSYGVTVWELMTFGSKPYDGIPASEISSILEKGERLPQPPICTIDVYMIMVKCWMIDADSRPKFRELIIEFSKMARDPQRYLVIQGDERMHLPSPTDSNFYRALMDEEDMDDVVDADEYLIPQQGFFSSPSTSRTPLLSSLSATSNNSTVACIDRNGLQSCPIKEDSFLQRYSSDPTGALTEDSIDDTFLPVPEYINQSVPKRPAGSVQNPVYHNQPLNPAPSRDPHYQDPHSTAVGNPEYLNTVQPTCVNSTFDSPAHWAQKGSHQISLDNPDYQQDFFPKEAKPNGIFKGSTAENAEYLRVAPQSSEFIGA

SMILES | IC50 [1] [nM] | IC50 [2] [nM] | IC50 [3] [nM]
C[C@H](CN(C)C)Oc1cc(N2CC3(COC3)C2)cc2ncnc(Nc3ccc4ncccc4c3F)c12 [Example 71, (R)-5-((1-(dimethylamino)propan-2-yl)oxy)-N-(5-fluoroquinolin-6-yl)-7-(2-oxa-6-azaspiro[3.3]heptan-6-yl)quinazolin-4-amine] | ≤ 10 | < 10 | < 10
C[C@H](CN(C)C)Oc1cc(N2CC[C@@H](C(C)(C)O)C2)cc2ncnc(Nc3ccc4ncccc4c3F)c12 [Example 72, 2—((R)-1-(5-(((R)-1-(dimethylamino)propan-2-yl)oxy)-4-((5-fluoroquinolin-6-yl)amino)quinazolin-7-yl)pyrrolidin-3-yl)propan-2-ol] | 10.1 to 50 | 10.1 to 50 | < 10
C[C@H](CN(C)C)Oc1cc(N2CC[C@H](C(C)(C)O)C2)cc2ncnc(Nc3ccc4ncccc4c3F)c12 [Example 73, 2—((S)-1-(5-(((R)-1-(dimethylamino)propan-2-yl)oxy)-4-((5-fluoroquinolin-6-yl)amino)quinazolin-7-yl)pyrrolidin-3-yl)propan-2-ol] | ≤ 10 | < 10 | < 10
C[C@H](CN(C)C)Oc1cc(N2CCC3(COC3)C2)cc2ncnc(Nc3ccc4ncccc4c3F)c12 [Example 74, (R)-5-((1-(dimethylamino)propan-2-yl)oxy)-N-(5-fluoroquinolin-6-yl)-7-(2-oxa-6-azaspiro[3.4]octan-6-yl)quinazolin-4-amine] | 10.1 to 50 | 10.1 to 50 | < 10
C[C@H](CN(C)C)Oc1nc(N2CC[C@H](C(C)(C)O)C2)cc2ncnc(Nc3ccc4ncccc4c3F)c12 [Example 75, 2—((S)-1-(5-(((R)-1-(dimethylamino)propan-2-yl)oxy)-4-((5-fluoroquinolin-6-yl)amino)pyrido[4,3-d]pyrimidin-7-yl)pyrrolidin-3-yl)propan-2-ol] | 10.1 to 50 | 10.1 to 50 | < 10
CO[C@@H]1CCN(c2cc3ncnc(Nc4ccc5ncccc5c4F)c3c(O[C@H](C)CN(C)C)n2)C1 [Example 76, 5—(((R)-1-(dimethylamino)propan-2-yl)oxy)-N-(5-fluoroquinolin-6-yl)-7-((R)-3-methoxypyrrolidin-1-yl)pyrido[4,3-d]pyrimidin-4-amine] | ≤ 10 | < 10 | < 10
C[C@@H](Oc1cc(N2CCC(N(C)C)CC2)cc2ncnc(Nc3ccc4ncccc4c3F)c12)C1COC1 [Example 78, (R)-7-(4-(dimethylamino)piperidin-1-yl)-N-(5-fluoroquinolin-6-yl)-5-(1-(oxetan-3-yl)ethoxy)quinazolin-4-amine] | ≤ 10 | < 10 | < 10
C[C@@H](Oc1cc(N2CC[C@@H](N(C)C)C2)cc2ncnc(Nc3ccc4ncccc4c3F)c12)C1COC1 [Example 79, 7—((R)-3-(dimethylamino)pyrrolidin-1-yl)-N-(5-fluoroquinolin-6-yl)-5-((R)-1-(oxetan-3-yl)ethoxy)quinazolin-4-amine] | ≤ 10 | < 10 | < 10
C[C@@H](Oc1cc(N2CC[C@H](N(C)C)C2)cc2ncnc(Nc3ccc4ncccc4c3F)c12)C1COC1 [Example 80, 7—((S)-3-(dimethylamino)pyrrolidin-1-yl)-N-(5-fluoroquinolin-6-yl)-5-((R)-1-(oxetan-3-yl)ethoxy)quinazolin-4-amine] | ≤ 10 | < 10 | < 10
C[C@H](CN(C)C)Oc1cc(N2CCS(=O)(=O)CC2)cc2ncnc(Nc3ccc4ncccc4c3F)c12 [Example 81, (R)-4-(5-((1-(dimethylamino)propan-2-yl)oxy)-4-((5-fluoroquinolin-6-yl)amino)quinazolin-7-yl)thiomorpholine 1,1-dioxide] | > 50.1 | > 50.1 | > 50.1
